Experimental data as given in PubChem BioAssay AID330 (DTP/NCI, 2004).
Several values for one entry are separate records, joined by “and”; a condition that tells them apart may be missing. Equal values may be shown once. Toxic doses and inconclusive results are not listed.

Tested on: P388 leukemia ip, CD2F1 mice, survival T/C
Experiment: NCI In Vivo Anticancer Drug Screen. Data for tumor model P388 Leukemia (intraperitoneal) in CD2F1 (CDF1) mice
Settings: endpoint: median survival time, higher = longer survival
Outline: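 Mice carrying the transplanted tumor received test compound or vehicle. Survival was recorded in each group, and the value is the treated-group measurement divided by that of the vehicle-treated control group.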

[1] = dose: 50.0 mg/kg/injection, schedule: Q01DX005 (ip), vehicle: Klucel (hydroxypropylcellulose) (HPC)
[2] = dose: 100.0 mg/kg/injection, schedule: Q01DX005 (ip), vehicle: Klucel (hydroxypropylcellulose) (HPC)
[3] = dose: 200.0 mg/kg/injection, schedule: Q01DX005 (ip), vehicle: Klucel (hydroxypropylcellulose) (HPC)
[4] = dose: 50.0 mg/kg/injection, schedule: Q01DX005 (ip), vehicle: saline with Tween-80
[5] = dose: 100.0 mg/kg/injection, schedule: Q01DX005 (ip), vehicle: saline with Tween-80
[6] = dose: 200.0 mg/kg/injection, schedule: Q01DX005 (ip), vehicle: saline with Tween-80
[7] = dose: 25.0 mg/kg/injection, schedule: Q01DX009 (ip), vehicle: saline with Tween-80
[8] = dose: 50.0 mg/kg/injection, schedule: Q01DX009 (ip), vehicle: saline with Tween-80
[9] = dose: 100.0 mg/kg/injection, schedule: Q01DX009 (ip), vehicle: saline with Tween-80
[10] = dose: 200.0 mg/kg/injection, schedule: Q01DX009 (ip), vehicle: saline with Tween-80
[11] = dose: 50.0 mg/kg/injection, schedule: Q01DX009 (ip), vehicle: saline
[12] = dose: 100.0 mg/kg/injection, schedule: Q01DX009 (ip), vehicle: saline

SMILES: CCC/C=C/C=C/C(=O)OC1C(C)C2(O)C3C=C(C)C(=O)C3CC(COC(C)=O)=CC2C2C(C)(C)C12OC(=O)C(C)C (stereo not drawn)
- T/C (dose: 0.12 mg/kg/injection, schedule: Q01DX009 (ip), vehicle: Klucel (hydroxypropylcellulose) (HPC)): 111 % of control
- T/C (dose: 0.25 mg/kg/injection, schedule: Q01DX009 (ip), vehicle: Klucel (hydroxypropylcellulose) (HPC)): 103 % of control
- T/C (dose: 0.5 mg/kg/injection, schedule: Q01DX009 (ip), vehicle: Klucel (hydroxypropylcellulose) (HPC)): 107 % of control
- T/C (dose: 1.0 mg/kg/injection, schedule: Q01DX005 (ip), vehicle: distilled water + Tween-80): 109 % of control and 113 % of control
- T/C (dose: 1.0 mg/kg/injection, schedule: Q01DX009 (ip), vehicle: Klucel (hydroxypropylcellulose) (HPC)): 106 % of control
- T/C (dose: 2.0 mg/kg/injection, schedule: Q01DX005 (ip), vehicle: distilled water + Tween-80): 121 % of control and 123 % of control
- T/C (dose: 2.0 mg/kg/injection, schedule: Q01DX005 (ip), vehicle: saline + alcohol): 115 % of control
- T/C (dose: 4.0 mg/kg/injection, schedule: Q01DX005 (ip), vehicle: saline + alcohol): 123 % of control

SMILES: COC(=O)/C=C(\C=C/C(=O)O)C(=O)O
- T/C [1]: 104 % of control
- T/C [2]: 100 % of control
- T/C [3]: 95 % of control

SMILES: CC1N=NNN1C (stereo not drawn)
- T/C [4]: 109 % of control
- T/C [5]: 109 % of control
- T/C [6]: 100 % of control

SMILES: OCC1OC(n2cnc3cc(Cl)c(Cl)cc32)C(O)C1O (stereo not drawn)
- T/C (dose: 8.0 mg/kg/injection, schedule: Q03HX024 (ip), vehicle: saline with Tween-80): 96 % of control
- T/C (dose: 16.0 mg/kg/injection, schedule: Q03HX024 (ip), vehicle: saline with Tween-80): 99 % of control
- T/C (dose: 20.0 mg/kg/injection, schedule: Q04DX003 (ip), vehicle: other): 95 % of control
- T/C (dose: 20.0 mg/kg/injection, schedule: Q04DX003 (oral), vehicle: other): 103 % of control
- T/C [7]: 93 % of control
- T/C (dose: 32.0 mg/kg/injection, schedule: Q03HX024 (ip), vehicle: saline with Tween-80): 114 % of control and 116 % of control
- T/C (dose: 40.0 mg/kg/injection, schedule: Q04DX003 (ip), vehicle: other): 100 % of control
- T/C (dose: 40.0 mg/kg/injection, schedule: Q04DX003 (oral), vehicle: other): 100 % of control
- T/C [8]: 106 % of control
- T/C (dose: 80.0 mg/kg/injection, schedule: Q04DX003 (ip), vehicle: other): 95 % of control
- T/C (dose: 80.0 mg/kg/injection, schedule: Q04DX003 (oral), vehicle: other): 103 % of control
- T/C [9]: 123 % of control
- T/C (dose: 160.0 mg/kg/injection, schedule: Q04DX003 (ip), vehicle: other): 110 % of control
- T/C (dose: 160.0 mg/kg/injection, schedule: Q04DX003 (oral), vehicle: other): 100 % of control
- T/C [10]: 160 % of control
- T/C (dose: 320.0 mg/kg/injection, schedule: Q04DX003 (ip), vehicle: other): 119 % of control
- T/C (dose: 320.0 mg/kg/injection, schedule: Q04DX003 (oral), vehicle: other): 107 % of control
- T/C (dose: 640.0 mg/kg/injection, schedule: Q04DX003 (oral), vehicle: other): 100 % of control

SMILES: CCCCCCCCC(=O)OCCNC(=O)C(C)OC(=O)CCCCCCCC (stereo not drawn)
- T/C (dose: 100.0 mg/kg/injection, schedule: Q01DX009 (ip), vehicle: Klucel (hydroxypropylcellulose) (HPC)): 96 % of control
- T/C (dose: 200.0 mg/kg/injection, schedule: Q01DX009 (ip), vehicle: Klucel (hydroxypropylcellulose) (HPC)): 100 % of control
- T/C (dose: 400.0 mg/kg/injection, schedule: Q01DX009 (ip), vehicle: Klucel (hydroxypropylcellulose) (HPC)): 98 % of control

SMILES: C/C=C/C(=O)Nc1cccc(OC(=O)NC(C)(C)C)c1
- T/C [7]: 101 % of control
- T/C [8]: 100 % of control
- T/C [9]: 97 % of control

SMILES: Cn1c(N)c(C(=O)CCc2ccccc2)c(=O)n(C)c1=O
- T/C [4]: 97 % of control
- T/C [5]: 97 % of control
- T/C [6]: 96 % of control

SMILES: CC(N)(CCS(=O)(=O)CP(=O)(O)O)C(=O)O (stereo not drawn)
- T/C (dose: 60.0 mg/kg/injection, schedule: Q01DX005 (ip), vehicle: saline): 103 % of control
- T/C (dose: 120.0 mg/kg/injection, schedule: Q01DX005 (ip), vehicle: saline): 97 % of control
- T/C (dose: 240.0 mg/kg/injection, schedule: Q01DX005 (ip), vehicle: saline): 93 % of control

SMILES: O=S(=O)(O)CN(CS(=O)(=O)O)c1nc(N(CS(=O)(=O)O)CS(=O)(=O)O)nc(N(CS(=O)(=O)O)CS(=O)(=O)O)n1
- T/C [4]: 92 % of control
- T/C [5]: 99 % of control
- T/C [6]: 101 % of control

SMILES: Cc1ccc2c(N(CCCl)CCCl)cc(-c3ccccc3)nc2n1
- T/C (dose: 50.0 mg/kg/injection, schedule: Q04DX003 (ip), vehicle: Klucel (hydroxypropylcellulose) (HPC)): 98 % of control
- T/C (dose: 100.0 mg/kg/injection, schedule: Q04DX003 (ip), vehicle: Klucel (hydroxypropylcellulose) (HPC)): 100 % of control
- T/C (dose: 200.0 mg/kg/injection, schedule: Q04DX003 (ip), vehicle: Klucel (hydroxypropylcellulose) (HPC)): 99 % of control

SMILES: COc1ccc(OC)c(CC=C(C)C)c1
- T/C (dose: 15.25 mg/kg/injection, schedule: Q01DX009 (ip), vehicle: Klucel (hydroxypropylcellulose) (HPC)): 100 % of control
- T/C (dose: 30.5 mg/kg/injection, schedule: Q01DX009 (ip), vehicle: Klucel (hydroxypropylcellulose) (HPC)): 97 % of control
- T/C (dose: 61.0 mg/kg/injection, schedule: Q01DX009 (ip), vehicle: Klucel (hydroxypropylcellulose) (HPC)): 107 % of control
- T/C (dose: 122.0 mg/kg/injection, schedule: Q01DX009 (ip), vehicle: Klucel (hydroxypropylcellulose) (HPC)): 100 % of control

SMILES: COc1cc2ccc(CC(=S)N3CCOCC3)cc2cc1OC
- T/C [9]: 90 % of control
- T/C [10]: 90 % of control

SMILES: O=c1oc2ccc3ccccc3c2cc1-c1c[nH]c2ccccc12
- T/C (dose: 60.0 mg/kg/injection, schedule: Q01DX005 (ip), vehicle: saline with Tween-80): 98 % of control
- T/C (dose: 120.0 mg/kg/injection, schedule: Q01DX005 (ip), vehicle: saline with Tween-80): 95 % of control
- T/C (dose: 240.0 mg/kg/injection, schedule: Q01DX005 (ip), vehicle: saline with Tween-80): 98 % of control

SMILES: COc1ccc(/C=N/NC(=O)C(=O)N/N=C/c2ccc(OC)c(S(=O)(=O)O)c2)cc1S(=O)(=O)O
- T/C [11]: 102 % of control
- T/C [12]: 104 % of control
- T/C (dose: 200.0 mg/kg/injection, schedule: Q01DX009 (ip), vehicle: saline): 109 % of control

SMILES: O=C1CC2(CCCC2)C(=O)N1c1cccc(Cl)c1
- T/C (dose: 100.0 mg/kg/injection, schedule: Q01DX001 (ip), vehicle: Klucel (hydroxypropylcellulose) (HPC)): 97 % of control
- T/C (dose: 200.0 mg/kg/injection, schedule: Q01DX001 (ip), vehicle: Klucel (hydroxypropylcellulose) (HPC)): 100 % of control
- T/C (dose: 400.0 mg/kg/injection, schedule: Q01DX001 (ip), vehicle: Klucel (hydroxypropylcellulose) (HPC)): 91 % of control

SMILES: CS(=O)(=O)OCCN1C(=O)CNC1=O
- T/C (dose: 12.5 mg/kg/injection, schedule: Q04DX003 (ip), vehicle: saline): 99 % of control
- T/C (dose: 25.0 mg/kg/injection, schedule: Q04DX003 (ip), vehicle: saline): 106 % of control
- T/C (dose: 50.0 mg/kg/injection, schedule: Q04DX003 (ip), vehicle: saline): 99 % of control
- T/C (dose: 100.0 mg/kg/injection, schedule: Q04DX003 (ip), vehicle: saline): 101 % of control
- T/C (dose: 200.0 mg/kg/injection, schedule: Q04DX003 (ip), vehicle: saline): 101 % of control
- T/C (dose: 400.0 mg/kg/injection, schedule: Q04DX003 (ip), vehicle: saline): 99 % of control

SMILES: NC(=O)N/N=C/Cn1ccc(=O)n(C/C=N/NC(N)=O)c1=O
- T/C [1]: 91 % of control
- T/C [2]: 87 % of control
- T/C [3]: 87 % of control

SMILES: O=C(O)c1ccc(OCc2ccccc2)cc1
- T/C [11]: 93 % of control
- T/C [12]: 93 % of control

SMILES: Oc1c(Cl)cc(Cl)cc1C=Nc1cc(C(F)(F)F)ccc1N1CCc2ccccc2C1
- T/C [8]: 98 % of control
- T/C [9]: 95 % of control
- T/C [10]: 96 % of control

SMILES: COc1cc2c(cc1C(C)c1cc(C(C)(C)C)c(O)c(C(C)(C)C)c1)OCO2 (stereo not drawn)
- T/C [4]: 104 % of control
- T/C [5]: 100 % of control
- T/C [6]: 94 % of control

SMILES: COC(=O)Nc1nc2ccc(-c3c(C)oc(C)c3C(=O)O)cc2[nH]1
- T/C [4]: 97 % of control
- T/C [5]: 97 % of control
- T/C [6]: 87 % of control

SMILES: CC(C)(C)c1ccc(C(c2ccc(C(C)(C)C)cc2)C(Cl)(Cl)Cl)cc1
- T/C (dose: 100.0 mg/kg/injection, schedule: Q04DX003 (ip), vehicle: saline with Tween-80): 104 % of control
- T/C (dose: 200.0 mg/kg/injection, schedule: Q04DX003 (ip), vehicle: saline with Tween-80): 100 % of control
- T/C (dose: 400.0 mg/kg/injection, schedule: Q04DX003 (ip), vehicle: saline with Tween-80): 100 % of control
